# In publication PMC11744575 (Advanced Science, 2024):
# B1: Cyp1a2 (Mus musculus) (protein)
# chain: MAFSQYISLAPELLLATAIFCLVFWMVRASRTQVPKGLKNPPGPWGLPFIGHMLTVGKNPHLSLTRLSQQYGDVLQIRIGSTPVVVLSGLNTIKQALVRQGDDFKGRPDLYSFTLITNGKSMTFNPDSGPVWAARRRLAQDALKSFSIASDPTSASSCYLEEHVSKEANHLVSKLQKAMAEVGHFEPVSQVVESVANVIGAMCFGKNFPRKSEEMLNIVNNSKDFVENVTSGNAVDFFPVLRYLPNPALKRFKTFNDNFVLFLQKTVQEHYQDFNKNSIQDITSALFKHSENYKDNGGLIPEEKIVNIVNDIFGAGFDTVTTAITWSILLLVTWPNVQRKIHEELDTVVGRDRQPRLSDRPQLPYLEAFILEIYRYTSFVPFTIPHSTTRDTSLNGFHIPKERCIYINQWQVNHDEKQWKDPFVFRPERFLTNNNSAIDKTQSEKVMLFGLGKRRCIGEIPAKWEVFLFLAILLQHLEFSVPPGVKVDLTPNYGLTMKPGTCEHVQAWPRFSK
# notes: liver S9 fractions from db/db mice or their lean littermates; from tissue; host or cells: pooled liver S9 fraction of db/db mice or lean littermates
# Assays:
# primary hepatocytes = test: Intracellular triglyceride content and BODIPY staining in primary hepatocytes; assay type: cell-based, mouse; conditions: for effect of co-incubation on triglyceride levels within BBR-treated hepatocytes: co-incubation with BBR in the presence of OA
# Method: To establish an in vitro model of hepatic steatosis, hepatocytes were treated with 0.2 mM oleic acid (OA, O7501, Sigma‐Aldrich) for 16 h. OA was pre‐incubated with 10% bovine serum albumin (BSA, Sigma‐Aldrich) (1:4) for 1 h and then added to the cell culture medium along with different compounds.
# Primary hepatocytes were washed three times with phosphate‐buffered saline (PBS) and then subjected to three repeated freeze‐thaw cycles. The released intracellular triglyceride content was then measured using a commercial assay kit (Jiancheng). Protein content was used for normalization.
# The lipid droplets in the hepatocytes in 6‐well plates were visualized by first washing the cells and then immersing them in a serum‐free medium. Subsequently, […] BODIPY 493/503 (Sigma‐Aldrich) was added to the medium, and the cells were incubated for 20 min for staining, followed by imaging with confocal microscopy (Olympus, Tokyo, Japan).
# PPARγ target genes = test: qPCR of PPARγ target genes in primary hepatocytes; assay type: cell-based, mouse; conditions: co-incubation with BBR
# Method: Tissues or cells were lysed using TRIzol (#1 218 355, Invitrogen, Thermo Fisher Scientific, MA, USA) for subsequent RNA extraction through a series of steps involving chloroform extraction and isopropanol and ethanol precipitation. Reverse transcription and cDNA synthesis were performed using a reverse transcription and cDNA synthesis kit (#639 506, Takara Bio Inc., Kusatsu, Shiga, Japan) to synthesize complementary DNA (cDNA) from […] of RNA. Quantitative real‐time PCR analysis was conducted utilizing SYBR Green pre‐mix (Q111‐02, Vazyme Biotech Co., Ltd, Nanjing, China) and subsequently analyzed employing the Roche real‐time PCR system. The mRNA expression levels were calculated and quantified utilizing the relative standard curve method and subsequently normalized to the expression of the housekeeping gene Gapdh. The primer sequences utilized for qPCR analysis are listed in Table S2 (Supporting Information).
# db/db mice = test: 4-week administration in db/db mice (liver injury, steatosis, glucose profiles); assay type: in vivo, mouse
# [1] = system: peroxisome proliferator‐activated receptor gamma (PPARγ); set-up: method as in PMID 18274627; conditions: cited from earlier work
# [2] = BBR metabolism kinetics with liver S9 fractions; assay type: in vitro ADME, mouse; conditions: for Km at 2 h: mouse, liver S9 fraction
# Method: The incubations were carried out for 2 h at 37 °C in a 100 µL reaction volume containing the pooled liver S9 fraction (7.5 mg·mL^−1) and an NADPH‐regenerating system consisting of MgCl2 (40 mM), glucose‐6‐phosphate (40 µM), NADP^+ (8 µM), and glucose 6‐phosphate dehydrogenase (4 U·mL^−1). The reactions were terminated by the addition of 300 µL of ice‐cold acetonitrile containing the internal standard (chlorophenylalanine), followed by rigorous mixing and centrifugation. The supernatants were subsequently analyzed by LC‐MS/MS, employing methodologies detailed in previous publications.^[ [27] ^]
# (§1) Briefly, proteins in the samples were precipitated with three volumes of methanol containing an internal standard (chlorophenylalanine). After centrifugation at 30 000 g for 10 min at 4 °C, the supernatant was injected into the LC‐MS/MS system for analysis. Chromatographic separation was conducted using a ZORBAX 300SB C18 column (100 × 2.1 mm, 3.5 µm, Agilent, CA, USA) at 40 °C on a Shimadzu HPLC system.
# [3] = system: peroxisome proliferator‐activated receptor alpha (PPARα); set-up: method as in PMID 18274627; conditions: cited from earlier work
# [4] = Pharmacokinetic profile of BBR and 6-OH-BBR in db/db and lean mice (plasma, liver); assay type: in vivo, mouse
# Method: Briefly, blood samples (50 µL) were collected at different time points post‐drug administration (no more than three collections per mouse), centrifuged at 4 °C and 8000 g for 5 min, and the upper plasma layer was collected. At 2 and 24 h post‐dosing, the mice were sacrificed, and liver tissues were collected for cryopreservation and prepared as homogenates (W/V: 0.1 g·mL^−1) for drug concentration determinations.
# as §1
# [5] = system: Primary cultured mouse hepatocytes; test: Cell viability (CCK8) cytotoxicity assay; assay type: cell-based
# Excerpt: C) BODIPY staining in different groups; images are shown under 600× or 1800× magnification, scale bar = 100 µm. D) Flow scheme of RNA sequencing.
# Primary hepatocytes were isolated from the livers of 6‐week‐old male C57BL/6J mice as previously described.^[ [25] ^] Briefly, the liver was thoroughly digested by injection of type IV collagenase (C4‐BIOC, Sigma‐Aldrich, Louis, MO, USA) via the portal vein. The perfused liver was excised, dispersed, and filtered through a 70 µm filter, and the digestion was terminated by adding cold Dulbecco's modified Eagle's medium (DMEM, #11 960 044, Gibco, Grand Island, NY, USA). The cell suspension was centrifuged at 4 °C at 50 g for 5 min to remove the supernatant and debris. An equal volume of DMEM and Percoll (CAS 65455‐52‐9, Sigma‐Aldrich) was then mixed thoroughly and centrifuged at 50 g for 15 min at 4 °C. The viable cell layer at the bottom was collected and further centrifuged in DMEM to prepare the cell seeding plate. Cells were seeded in a 6‐well plate at a density of 1 × 10^6 cells per well and cultured in DMEM medium supplemented with 10% fetal bovine serum (FBS, Gibco) at 37 °C in a 5% CO2 incubator.
# livers of healthy rats = system: livers of healthy rats; set-up: method as in PMID 1701930; conditions: up to 102 weeks of treatment; cited from earlier work
# [6] = target: T1, recombinant human PPARγ protein (Homo sapiens, UniProt P37231); test: MicroScale Thermophoresis (MST) of rosiglitazone binding with/without BBR; conditions: rosiglitazone affinity in presence/absence of BBR
# T1 construct: purchased Sino Biotechnology, Beijing, China
# T1 sequence (P37231 1-505): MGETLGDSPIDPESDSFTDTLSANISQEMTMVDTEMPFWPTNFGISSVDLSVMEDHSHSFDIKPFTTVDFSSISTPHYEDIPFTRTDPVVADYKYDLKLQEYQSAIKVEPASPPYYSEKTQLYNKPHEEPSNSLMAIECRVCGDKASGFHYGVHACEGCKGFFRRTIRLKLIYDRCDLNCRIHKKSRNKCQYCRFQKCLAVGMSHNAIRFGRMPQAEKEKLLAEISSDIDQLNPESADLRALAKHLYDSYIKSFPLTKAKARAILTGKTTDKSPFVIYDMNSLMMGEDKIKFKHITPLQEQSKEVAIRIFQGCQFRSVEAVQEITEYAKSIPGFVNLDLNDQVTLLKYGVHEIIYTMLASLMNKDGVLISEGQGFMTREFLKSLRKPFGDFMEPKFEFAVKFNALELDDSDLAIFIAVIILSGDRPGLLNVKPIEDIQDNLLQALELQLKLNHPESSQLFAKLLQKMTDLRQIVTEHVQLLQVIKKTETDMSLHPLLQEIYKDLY
# obese mice models = system: obese mice models; set-up: method as in PMID 29526820; conditions: no comparable liver damage in healthy lean mice; cited from earlier work
# [7] = substrate: CC(=O)Nc1ccc(O)cc1; test: Enzyme kinetic study in liver S9, Cyp1a2; assay type: in vitro ADME, mouse; conditions: 37.0 °C
# [8] = db/db vs lean mice, single 20 mg·kg^−1 i.g.
# [9] = 25 mg·kg^−1 gavage once daily, 4 weeks
# [10] = db/db mice compared to lean littermates after BBR 20 mg·kg^−1 i.g.
molecule,measurement,setting,value
CCC(=O)NC[C@H](Cc1ccc(OCCc2nc(-c3ccccc3)oc2C)cc1)N/C(C)=C\C(=O)c1ccc(C(F)(F)F)cc1 [GW6471],effect of co-incubation on triglyceride levels within BBR-treated hepatocytes,primary hepatocytes,failed to mitigate
O=C(Nc1ccccc1)c1cc([N+](=O)[O-])ccc1Cl [GW9662],effect on BBR-induced upregulation of typical PPARγ target genes (mRNA),PPARγ target genes,significantly diminished
same,effect on BBR-mediated exacerbation of hepatic steatosis and liver injury,"db/db mice; 1 mg·kg^−1 i.p. with BBR, 4 weeks",markedly mitigated
same,effect of co-incubation on triglyceride levels within BBR-treated hepatocytes,primary hepatocytes,notable reduction
"CCc1oc2ccccc2c1C(=O)c1cc(Br)c(O)c(Br)c1 [BBR, Benzbromarone]",binding affinity for PPARγ,[1],weak binding affinity
same,metabolism catalyzed by liver S9 fractions,[2]; S9 from db/db mice compared to lean mice,marked reduction
same,Km at 2 h,"[2]; lean littermates of db/db mice, liver S9 from Lean mice",8.14 µg/mL
same,Km at 2 h,[2]; liver S9 from db/db mice,9.24 µg/mL
same,binding affinity for PPARα,[3],weak binding affinity
same,liver concentration at 2 h post-administration,"[4]; db/db mouse livers vs lean littermates, 20 mg·kg^−1 i.g.",notably higher
same,decrease in clearance rate (CL),[4]; [8],42.5%
same,"increase in area under the curve (AUC), plasma",[4]; [8],1.75 fold
same,increase in mean residence time (MRT),[4]; [8],1.54 fold
same,increase in plasma half-life (T1/2),[4]; [8],2.03 fold
same,liver concentration at 24 h,"[4]; liver tissues of both groups (db/db and lean), 20 mg·kg^−1 i.g.",undetectable
same,"liver weight, serum transaminases, and creatinine levels",db/db mice; [9],increases
same,serum triglyceride and non-esterified fatty acid (NEFA) levels,db/db mice; [9],reductions
same,fasting plasma glucose levels,db/db mice; 4-week treatment,significantly decreased
same,glucose tolerance,db/db mice; 4-week treatment,improved
same,liver triglyceride levels,db/db mice; 4-week treatment,elevation
same,pyruvate tolerance and insulin sensitivity,db/db mice; 4-week treatment,diminished
same,cytotoxicity at dosages chosen for further experiments,[5]; 15 and 30 µM,non‐toxic
same,IC50,"[5]; Mus musculus, Hepatocyte, read-out: 50% inhibitory concentration (IC50), cell viability, 24 h incubation, CCK8",80.3 µM
same,hepatotoxicity in the livers of healthy rats,livers of healthy rats,negligible hepatotoxicity
same,nature of BBR binding against the PPARγ agonist rosiglitazone (MST),[6],competitive
same,"lipid accumulation (intracellular triglyceride, BODIPY lipid droplets)","primary hepatocytes; oleic acid (OA)-treated hepatocytes, 16 h",obviously enhanced
same,hepatic steatosis and liver injury,obese mice models,specifically exacerbates
"CCc1oc2cc(O)ccc2c1C(=O)c1cc(Br)c(O)c(Br)c1 [6‐OH‐BBR, 6‐hydroxy‐benzbromarone]","liver concentration at 24 h, db/db vs lean",[4]; [10],significantly higher
same,plasma concentration-time profile (metabolite production),[4]; [10],delayed production
Cc1ccc(Cn2nc(CCCc3ccc(OC(C)(C)C(=O)O)cc3)[nH]c2=O)cc1 [LY518674],effect of co-incubation on triglyceride levels within BBR-treated hepatocytes,primary hepatocytes,notable reduction
O=C(Nc1ccncc1)c1cc([N+](=O)[O-])ccc1Cl [T0070907],effect of co-incubation on triglyceride levels within BBR-treated hepatocytes,primary hepatocytes,notable reduction
B1,Km,"[7]; other: Cyp1a2, pooled liver S9, Lean",45.8 µM
same,Km,"[7]; other: Cyp1a2, pooled liver S9, db/db",32.5 µM
